Laboratory results as given in a polymer gas permeability compilation.

Structure (SMILES) | CH4 permeability [Barrer] | CO2 permeability [Barrer] | H2 permeability [Barrer] | N2 permeability [Barrer] | O2 permeability [Barrer]
*c1c(C)c(C)c(-n2c(=O)c3cc4oc5cc6c(cc5oc4cc3c2=O)C2(CC(C)(C)c3cc4oc5cc7c(=O)n(*)c(=O)c7cc5oc4cc32)CC6(C)C)c(C)c1C (repeat unit) | 77 | 1100 | 530 | 47 | 150
*O[Si](C)(C)CCCCCCCC[Si](*)(C)C (repeat unit) | 360 | 1200 | – | – | 237
*CC(*)(C)C(=O)OC (repeat unit) | 0.00565 | 0.35 | 4.1 | 0.0113 | 0.0885
*C(C)=C(*)CCC(C)C (repeat unit) | 112 | 390 | 370 | 51 | 130
*Nc1c(C)cc(Cc2cc(C)c(NC(=O)c3ccc(Oc4cc(C(C)(C)C)c(Oc5ccc(C(*)=O)cc5)cc4C(C)(C)C)cc3)c(C(C)C)c2)cc1C(C)C (repeat unit) | 1.21 | 27 | – | 1.18 | 6.47
*c1ccc(-c2ccc(N3C(=O)c4ccc([Si](C)(C)c5ccc6c(c5)C(=O)N(*)C6=O)cc4C3=O)c(OC)c2)cc1OC (repeat unit) | – | – | 9.33 | 0.096 | 0.53
*Oc1cc2c(cc1O*)C1(c3ccccc3-2)c2ccccc2-c2cc3c(cc21)Oc1c(C#N)c(*)c(*)c(C#N)c1O3 (repeat unit) | 622 | 8890 | 4520 | 442 | 1620
*Oc1ccc(S(=O)(=O)c2ccc(Oc3ccc(C(c4ccc(*)cc4)(C(F)(F)F)C(F)(F)F)cc3)cc2)cc1 (repeat unit) | 0.345 | 8.45 | 15.1 | 0.431 | 2.33
*c1c(C)cc(-c2cc(C)c(-n3c(=O)c4cc5oc6cc7c(cc6oc5cc4c3=O)C3(CC(C)(C)c4cc5oc6cc8c(=O)n(*)c(=O)c8cc6oc5cc43)CC7(C)C)c3ccccc23)c2ccccc12 (repeat unit) | 215 | 2980 | 1310 | 130 | 432
*c1ccc(-c2nnc(-c3ccc(N4C(=O)c5ccc(C(c6ccc7c(c6)C(=O)N(*)C7=O)(C(F)(F)F)C(F)(F)F)cc5C4=O)cc3)o2)cc1 (repeat unit) | 0.25 | 15.6 | – | 0.61 | –
*c1c(C)cc(Cc2cc(C)c(N3C(=O)c4ccc(C(c5ccc6c(c5)C(=O)N(*)C6=O)(C(F)(F)F)C(F)(F)F)cc4C3=O)c(C)c2)cc1C (repeat unit) | 1.45 | 43.9 | – | 2.13 | 10.3
*C(C)=C(*)c1ccccc1 (repeat unit) | 5.2 | 174 | 199 | 12.2 | 36.8
*Oc1ccc(S(=O)(=O)c2ccc(Oc3ccc4ccc(*)cc4c3)cc2)cc1 (repeat unit) | 0.05 | 1.8 | 8.15 | 0.0735 | 0.5
*C(=O)c1ccc(C2(c3ccc(C(=O)c4ccc(Oc5ccc(C(=O)c6cccc(C(=O)c7ccc(Oc8ccc(*)cc8)cc7)c6)cc5)cc4)cc3)OC(=O)c3ccccc32)cc1 (repeat unit) | 0.0276 | 0.91 | 5.3 | 0.031 | 0.27
*C(=O)c1ccc([Si](C)(C)c2ccc(C(*)=O)cc2)cc1 (repeat unit) | 1.39 | 22.2 | 27.1 | 1.37 | 5.54
*c1c(C)c(C(=O)O)c(C)c(N2C(=O)c3ccc(C(c4ccc5c(c4)C(=O)N(*)C5=O)(C(F)(F)F)C(F)(F)F)cc3C2=O)c1C (repeat unit) | 3.2 | 144 | 193 | 5.52 | 26.4
*O[Si](C)(C)CCCCCC[Si](*)(C)C (repeat unit) | 395 | 1310 | – | – | 265
*CC(*)OC1CCCCC1 (repeat unit) | – | 13.6 | – | 0.99 | 3.69
*OCCCCCC(*)=O (repeat unit) | 1.57 | 16.8 | 5.06 | 0.59 | 1.32
*c1cccc(-c2cc(C)c(-c3cccc(*)c3C)cc2C)c1C (repeat unit) | 5.6 | 190 | 210 | 7.3 | 32
*c1c(C)cc(-c2cc(C)c(-c3cc(C)c(*)c(C)c3)cc2C)cc1C (repeat unit) | 15 | 360 | 350 | 16.5 | 67
